# Literature values, collected in patent US12161661B2, “Topical composition for destroying, in vivo, an external hyperplastic tissue, such as, but not limited to, a viral skin lesion, such as, but not limited to, a viral wart” (priority 2022, dated 2024).
# Where two headings read alike, the source gives them in different places.
# Columns and labels:
# [1] = test system: warts of the hands and legs; conditions: 5% cream once a day for 4 weeks, with occlusion
# plantar warts [2] = conditions: 12 weeks; 19/20
# warts [3] = test system: warts
# [4] = test system: warts on the palms and soles
# plantar warts [5] = conditions: 10% solution
# warts [6] = test system: warts; remark: listed apart in the source
# periungual warts = conditions: once in two weeks for 6 weeks, after fractional CO2 laser
# [7] = test system: warts on the hands and feet; conditions: plus light source PDL
# flat warts on the face [8] = conditions: 0.7% cantharidin, over 16 weeks on average
# warts [9] = conditions: oral, within 3 months, children aged 2.5-12.5 years; 16/20
# flat warts on the face [10] = conditions: after 2 months, 0.5 mg/kg. per day
# warts [11] = conditions: 80% solution every week for 6 weeks
# warts [12] = test system: warts; remark: listed apart in the source
# warts [13] = test system: warts; remark: listed apart in the source
# warts [14] = conditions: 1 of 30
# [15] = 15-26% salicylic acid locally every day for 3 to 4 months
compound,measurement,setting,value
"O=c1[nH]cc(F)c(=O)[nH]1 [5-FU, Ftoruracil]",warts cleared at the end of treatment,[1],60%
same,"complete cure, patients",plantar warts [2],95%
Nc1ccn(C[C@@H](CO)OCP(=O)(O)O)c(=O)n1 [Cidofovir],resolution of warts,warts [3]; average of 3.2 injections per course,98%
same,side effects,warts [3]; in vivo,"nephrotoxicity, neutropenia, and metabolic acidosis"
"O=c1c(-c2ccccc2)c1-c1ccccc1 [DPC, Diphenylcyclopropenone]",complete disappearance of warts,[4]; 48 patients treated with DPC,88%
same,average processing time,"[4]; human, in vivo",5 months
same,recurrence,[4]; within 2 years,no recurrence was observed
O=CCCCC=O [Glutaraldehyde],efficiency compared with salicylic acid,plantar warts [5],equivalent to the solution of salicylic acid
same,effectiveness,resistant warts; 25 patients,72%
same,tolerability,"resistant warts; human, in vivo",well tolerated
CC(C)Cn1cnc2c(N)nc3ccccc3c21 [Imiquimod],"curing, patients","warts [6]; 9.5 weeks, 50 patients of whom 19 had immunosuppression",56%
same,patients with a 50% egression of warts,warts [6]; twice daily for up to 24 weeks,76%
"COC(=O)CCC(=O)CN [MAL-PDT, methyl5-aminolaevuninic acid]",cure rate,periungual warts,90%
same,resolution of treated warts,[7],53%
C[C@@]12C(=O)OC(=O)[C@]1(C)[C@H]1CC[C@@H]2O1 [cantharidin],cure,flat warts on the face [8],cure in all 15 patients
CCOC(=O)/C=C(C)/C=C/C=C(C)/C=C/c1c(C)cc(OC)c(C)c1C [etretinate],effect observed,warts [9],80%
CC1=C(/C=C/C(C)=C/C=C/C(C)=C\C(=O)O)C(C)(C)CCC1 [isotretinoin],effect,flat warts on the face [10],73%
Oc1ccccc1 [phenol],cure rate,warts [11],83%
CC(=O)C(=O)O [pyruvic acid],"recovery, patients",warts [12]; in combination with 0.5% 5-FU,80%
same,"recovery, patients",warts [12]; pyruvic acid alone,70%
O=C(O)c1ccccc1O [salicylic acid],average cure rate,warts [13]; [15],49%
same,"cure rate, range",warts [13]; [15],0-69%
same,effect of the salicylic acid (qualitative studies),warts [13]; in vivo,low
CC1=C(/C=C/C(C)=C/C=C/C(C)=C/C(=O)O)C(C)(C)CCC1 [tretinoin],"effect achieved, patients",warts [14],3%
bleomycin,cure rate,"wart; 0.1-1 mg injected into the wart, compared with cryotherapy",92-97%
same,"pain after injection, duration",wart; main side effect,up to 48 hours
